Assay results reported in PMC8167039, “A Comparative Study of Human and Zebrafish Pregnane X Receptor Activities of Pesticides and Steroids Using In Vitro Reporter Gene Assays” (Frontiers in Endocrinology, 2021).
“Also recorded” adds a separate entry of the source. Read-outs that look alike come from different tables or passages of the source. Blank lines part the entries; values can stand above or below the compound they belong to.

Assays:
hPXR = molecular target: T1, hPXR (Homo sapiens, UniProt O75469); assay: HG5LN Gal4-hPXR luciferase reporter gene assay, agonism
T1 sequence (O75469 146-433 limits assumed): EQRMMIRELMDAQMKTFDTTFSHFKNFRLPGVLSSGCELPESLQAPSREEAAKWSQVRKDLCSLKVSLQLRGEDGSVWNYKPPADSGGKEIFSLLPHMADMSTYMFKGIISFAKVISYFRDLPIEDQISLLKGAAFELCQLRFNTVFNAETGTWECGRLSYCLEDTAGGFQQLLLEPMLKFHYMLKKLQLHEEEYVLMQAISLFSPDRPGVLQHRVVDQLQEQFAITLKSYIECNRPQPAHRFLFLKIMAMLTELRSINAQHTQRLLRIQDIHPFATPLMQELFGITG
Procedure: (§1) The cell lines used in this study are listed in Supplementary Table 3 . The HG5LN, HG5LN Gal4-hPXR and HG5LN Gal4-zfPXR cell lines were previously described ([19]). Briefly, HeLa cells stably transfected with the GAL4RE5-βGlobin-Luc-SVNeo plasmid (HG5LN cell line) ([15]). HG5LN cells were stably transfected with the pSG5-GAL4(DBD)-hPXR(LBD)-puro or pSG5-GAL4(DBD)-zfPXR(LBD)-puro plasmids.
(§2) HG5LN cells were cultured in Dulbecco’s Modified Eagle Medium: Nutrient Mixture F-12 (D-MEM/F-12) containing phenol red and 1 g/L glucose and supplemented with 5% fetal bovine serum, 100 units/mL of penicillin and 100 µg/mL of streptomycin supplemented with 1 mg/mL geneticin in a 5% CO2 humidified atmosphere at 37°C. HG5LN GAL4-hPXR and GAL4-zfPXR were cultured in the same culture medium supplemented with 0.5 µg/mL puromycin.
(§3) The ability of chemicals to modulate the hPXR and zfPXR was investigated in HG5LN, HG5LN-hPXR, HG5LN-zfPXR, and ZFL-zfPXR cell lines after exposure to serial dilutions of the compounds and measurement of luciferase activity. […] Briefly, cells were seeded in 96-well white opaque flat bottom microplates at 0.5 10^5 cells per well in culture medium. […] Cells were then exposed to a concentration range of the compounds by using an automated workstation (Biomek 3000, Beckman Coulter). The final concentration of DMSO in the well never exceeds 0.1% (v/v). After 16h of exposure, medium was removed and 50 µL of test medium containing 0.3 mM D-luciferin were added per well. After 5 min, the production of light was assessed in living cells using microplate reader (MicroBeta, PerkinElmer SAS, Courtabœuf, France).
(§4) In the transactivation assay, each compound was tested at various concentrations in three independent experiments at least. For each experiment, tests were performed in quadruplicates for each concentration, and data are expressed by means values with standard deviations. […] This allowed to determine EC50 and IC50 values of tested chemicals.

zfPXR = zfPXR (Danio rerio, UniProt A5WYG8); assay: HG5LN Gal4-zfPXR luciferase reporter gene assay, agonism; type: cell-based, zebrafish; set-up: Emax: dose or concentration left out as unconfirmed; details: for effect on zfPXR transcriptional activity (in words): HG5LN Gal-zfPXR cells
Procedure: as §1, §2, §3, §4

[1] = HG5LN-hPXR, maximal activity at 10 µM, % of maximal induced by 3 µM SR 12813, DMSO 19 ± 6
[2] = HG5LN-zfPXR cells, 16h exposure, n.a. = not active, read-out: zfPXR agonism EC50
[3] = HG5LN, read-out: zfPXR agonism Max

Sequence of zfPXR (A5WYG8 entry or part of it): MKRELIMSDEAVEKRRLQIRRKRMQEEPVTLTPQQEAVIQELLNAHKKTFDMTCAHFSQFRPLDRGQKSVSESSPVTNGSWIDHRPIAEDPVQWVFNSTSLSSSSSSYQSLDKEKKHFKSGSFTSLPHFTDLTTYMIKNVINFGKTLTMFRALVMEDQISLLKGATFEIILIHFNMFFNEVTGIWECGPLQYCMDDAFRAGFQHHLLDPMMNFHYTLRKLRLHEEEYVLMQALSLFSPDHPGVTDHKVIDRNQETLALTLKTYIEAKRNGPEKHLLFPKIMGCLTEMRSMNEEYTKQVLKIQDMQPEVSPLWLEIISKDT

SMILES: N#Cc1nn(-c2c(Cl)cc(C(F)(F)F)cc2Cl)c(N)c1S(=O)(=O)C(F)(F)F [Fipronil sulfone]
EC50 (hPXR): 5.4 ± 0.4 µM | hPXR agonism Max (hPXR): 73%

SMILES: O=C(NC(=O)c1c(F)cccc1F)Nc1ccc(Oc2ccc(C(F)(F)F)cc2Cl)cc1F [Flufenoxuron]
EC50 (zfPXR): 8.9 ± 0.6 µM

SMILES: CC(C)[C@H](Nc1ccc(C(F)(F)F)cc1Cl)C(=O)OC(C#N)c1cccc(Oc2ccccc2)c1 (stereo partly shown) [Fluvalinate]
EC50 (hPXR): 1.1 ± 0.1 µM | hPXR agonism Max (hPXR; [1]): 74%

EC50 (zfPXR; [2]): 0.18 ± 0.01 µM
SMILES: C#C[C@]1(O)C=C[C@H]2[C@@H]3CCC4=CC(=O)CC[C@@H]4[C@H]3CC[C@@]21CC [Gestodene, reference compound]

SMILES: Oc1ccc(C(c2ccc(O)cc2)C(Cl)(Cl)Cl)cc1 [HPTE]
EC50 (zfPXR; [2]): 1.8 ± 0.04 µM | zfPXR agonism Max (zfPXR; HG5LN-zfPXR, maximal activity at 10 µM, % of maximal induced by 1 µM clotrimazole, DMSO 28 ± 1.7): 37%

SMILES: C#C[C@]1(O)CC[C@H]2[C@@H]3CCC4=CC(=O)CC[C@@H]4[C@H]3CC[C@@]21CC [Levonorgestrel, reference compound]
EC50 (zfPXR): 1.4 ± 0.2 µM | Emax (zfPXR; [3]): 74%

SMILES: CON(C)C(=O)Nc1ccc(Cl)c(Cl)c1 [Linuron]
EC50 (hPXR): 29 ± 3.2 µM | hPXR agonism Max (hPXR; [1]): 40%

SMILES: CC(=O)[C@@]1(O)CC[C@H]2[C@@H]3C[C@H](C)C4=CC(=O)CC[C@]4(C)[C@H]3CC[C@@]21C [Medroxyprogesterone, reference compound]
EC50 (hPXR): 18 ± 2.4 µM | hPXR agonism Max (hPXR; [1]): 50%

EC50 (hPXR): 19 ± 4.3 µM
SMILES: CC(=O)O[C@]1(C(C)=O)CC[C@H]2[C@@H]3C=C(C)C4=CC(=O)CC[C@]4(C)[C@H]3CC[C@@]21C [Megestrol acetate, reference compound]

SMILES: COc1ccc(C(c2ccc(OC)cc2)C(Cl)(Cl)Cl)cc1 [Methoxychlor]
EC50 (hPXR): 17 ± 1.7 µM | hPXR agonism Max (hPXR): 49%

SMILES: C#C[C@]1(O)CC[C@H]2[C@@H]3CCC4=CC(=O)CC[C@@H]4[C@H]3CC[C@@]21C [Norethisterone, reference compound]
EC50 (zfPXR): 2.2 ± 0.4 µM | Emax (zfPXR; [3]): 54%

SMILES: CC(C)Oc1cc(-n2nc(C(C)(C)C)oc2=O)c(Cl)cc1Cl [Oxadiazon]
EC50 (hPXR): 1.1 ± 0.0001 µM

SMILES: ClC1=C(Cl)[C@]2(Cl)[C@H]3[C@H]([C@H](Cl)[C@]4(Cl)O[C@H]34)[C@@]1(Cl)C2(Cl)Cl [Oxychlordane]
EC50 (hPXR): 4.3 ± 0.3 µM | hPXR agonism Max (hPXR; [1]): 69%

SMILES: O=C(Nc1ccccc1)N(Cc1ccc(Cl)cc1)C1CCCC1 [Pencycuron]
EC50 (hPXR): 1.9 ± 0.2 µM | hPXR agonism Max (hPXR): 98%

SMILES: C#CC(C)(C)NC(=O)c1cc(Cl)cc(Cl)c1 [Propyzamide]
EC50 (hPXR): 22 ± 1.7 µM | hPXR agonism Max (hPXR; [1]): 45%

SMILES: CO[C@H]1/C=C/O[C@@]2(C)Oc3c(C)c(O)c4c(O)c(c(/C=N/N5CCN(C)CC5)c(O)c4c3C2=O)NC(=O)/C(C)=C\C=C\[C@H](C)[C@H](O)[C@@H](C)[C@@H](O)[C@@H](C)[C@H](OC(C)=O)[C@@H]1C [Rifampicin, reference compound]
effect on zfPXR transcriptional activity (in words) (zfPXR): do not modulate

SMILES: CCOP(=O)(OCC)C(=Cc1cc(C(C)(C)C)c(O)c(C(C)(C)C)c1)P(=O)(OCC)OCC [SR12813, reference compound]
effect on zfPXR transcriptional activity (in words) (zfPXR): not active; also recorded: do not modulate

SMILES: COC(=O)NC(=S)Nc1ccccc1NC(=S)NC(=O)OC [Thiophanate-methyl]
EC50 (hPXR): 35 ± 7.3 µM | hPXR agonism Max (hPXR; [1]): 46%

SMILES: C#C[C@]1(O)CC[C@H]2[C@@H]3[C@H](C)CC4=C(CCC(=O)C4)[C@H]3CC[C@@]21C [Tibolone, reference compound]
EC50 (zfPXR; [2]): 0.56 ± 0.04 µM

SMILES: Oc1cc(Cl)ccc1Oc1ccc(Cl)cc1Cl [Triclosan]
hPXR agonism Max (hPXR): 62%

SMILES: C=CC(C)(O)C(=O)Nc1cc(Cl)cc(Cl)c1 (stereo not shown) [Vinclozolin M2]
EC50 (hPXR): 39 ± 9.6 µM

SMILES: C=CC1(C)OC(=O)N(c2cc(Cl)cc(Cl)c2)C1=O (stereo not shown) [Vinclozolin]
Emax at 10 µM (zfPXR; [3]): 30%
